From the NIST ThermoML archive (doi:10.1021/je400332j)

Assay: xn = mol fraction of the nth substance listed
Settings: 101 kPa, Liquid; for viscosity: Concentric cylinders viscometry; for mass density: Vibrating tube method

CCCCCCn1cc[n+](C)c1.F[B-](F)(F)F [1-hexyl-3-methylimidazolium tetrafluoroborate] + CCn1cc[n+](C)c1.F[B-](F)(F)F
Settings	mass density [kg/m3]	viscosity [mPa·s]
293.15 K, x2 = 0	1147.5	280.4
293.15 K, x2 = 0.1009	1157.3	244.3
293.15 K, x2 = 0.2005	1168.1	210.7
293.15 K, x2 = 0.3003	1179.5	179.6
293.15 K, x2 = 0.4001	1191.4	151.7
293.15 K, x2 = 0.4999	1204.3	127.1
293.15 K, x2 = 0.6007	1218.1	105
293.15 K, x2 = 0.7004	1232.7	86.22
293.15 K, x2 = 0.8001	1248.5	69.78
293.15 K, x2 = 0.8998	1265.3	56.02
298.15 K, x2 = 0	1144.1	206.3
298.15 K, x2 = 0.1009	1153.9	180.8
298.15 K, x2 = 0.2005	1164.7	157.2
298.15 K, x2 = 0.3003	1176.1	135.1
298.15 K, x2 = 0.4001	1188	115.2
298.15 K, x2 = 0.4999	1200.8	97.48
298.15 K, x2 = 0.6007	1214.6	81.5
298.15 K, x2 = 0.7004	1229.1	67.79
298.15 K, x2 = 0.8001	1244.9	55.7
298.15 K, x2 = 0.8998	1261.7	45.42
303.15 K, x2 = 0	1140.6	154.9
303.15 K, x2 = 0.1009	1150.5	136.9
303.15 K, x2 = 0.2005	1161.2	119.8
303.15 K, x2 = 0.3003	1172.5	103.8
303.15 K, x2 = 0.4001	1184.4	89.33
303.15 K, x2 = 0.4999	1197.2	76.33
303.15 K, x2 = 0.6007	1211	64.52
303.15 K, x2 = 0.7004	1225.5	54.31
303.15 K, x2 = 0.8001	1241.2	45.2
303.15 K, x2 = 0.8998	1257.9	37.38
308.15 K, x2 = 0	1137.2	118.7
308.15 K, x2 = 0.1009	1147.1	105.5
308.15 K, x2 = 0.2005	1157.8	92.98
308.15 K, x2 = 0.3003	1169	81.23
308.15 K, x2 = 0.4001	1180.9	70.51
308.15 K, x2 = 0.4999	1193.6	60.8
308.15 K, x2 = 0.6007	1207.4	51.94
308.15 K, x2 = 0.7004	1221.8	44.18
308.15 K, x2 = 0.8001	1237.5	37.22
308.15 K, x2 = 0.8998	1254.2	31.18
313.15 K, x2 = 0	1133.7	92.56
313.15 K, x2 = 0.1009	1143.6	82.73
313.15 K, x2 = 0.2005	1154.3	73.45
313.15 K, x2 = 0.3003	1165.5	64.64
313.15 K, x2 = 0.4001	1177.4	56.57
313.15 K, x2 = 0.4999	1190.1	49.22
313.15 K, x2 = 0.6007	1203.8	42.45
313.15 K, x2 = 0.7004	1218.2	36.47
313.15 K, x2 = 0.8001	1233.8	31.06
313.15 K, x2 = 0.8998	1250.4	26.32
318.15 K, x2 = 0	1130.3	73.37
318.15 K, x2 = 0.1009	1140.3	65.95
318.15 K, x2 = 0.2005	1150.9	58.94
318.15 K, x2 = 0.3003	1162	52.24
318.15 K, x2 = 0.4001	1173.9	46.08
318.15 K, x2 = 0.4999	1186.5	40.41
318.15 K, x2 = 0.6007	1200.2	35.16
318.15 K, x2 = 0.7004	1214.6	30.49
318.15 K, x2 = 0.8001	1230.1	26.23
318.15 K, x2 = 0.8998	1246.7	22.48
323.15 K, x2 = 0	1127	59.03
323.15 K, x2 = 0.1009	1136.9	53.34
323.15 K, x2 = 0.2005	1147.4	47.98
323.15 K, x2 = 0.3003	1158.5	42.8
323.15 K, x2 = 0.4001	1170.4	38.02
323.15 K, x2 = 0.4999	1183	33.6
323.15 K, x2 = 0.6007	1196.6	29.48
323.15 K, x2 = 0.7004	1211	25.79
323.15 K, x2 = 0.8001	1226.4	22.4
323.15 K, x2 = 0.8998	1242.9	19.38
328.15 K, x2 = 0	1123.6	48.16
328.15 K, x2 = 0.1009	1133.5	43.73
328.15 K, x2 = 0.2005	1144	39.57
328.15 K, x2 = 0.3003	1155.1	35.51
328.15 K, x2 = 0.4001	1166.9	31.77
328.15 K, x2 = 0.4999	1179.4	28.27
328.15 K, x2 = 0.6007	1192.9	25.02
328.15 K, x2 = 0.7004	1207.4	22.05
328.15 K, x2 = 0.8001	1222.7	19.31
328.15 K, x2 = 0.8998	1239.2	16.85
333.15 K, x2 = 0	1120.2	39.71
333.15 K, x2 = 0.1009	1130.1	36.3
333.15 K, x2 = 0.2005	1140.6	33.02
333.15 K, x2 = 0.3003	1151.6	29.82
333.15 K, x2 = 0.4001	1163.4	26.83
333.15 K, x2 = 0.4999	1176	24.04
333.15 K, x2 = 0.6007	1189.5	21.41
333.15 K, x2 = 0.7004	1203.8	19.03
333.15 K, x2 = 0.8001	1219.1	16.8
333.15 K, x2 = 0.8998	1235.6	14.78
338.15 K, x2 = 0	1116.8	33.21
338.15 K, x2 = 0.1009	1126.7	30.47
338.15 K, x2 = 0.2005	1137.2	27.86
338.15 K, x2 = 0.3003	1148.2	25.3
338.15 K, x2 = 0.4001	1160	22.92
338.15 K, x2 = 0.4999	1172.5	20.64
338.15 K, x2 = 0.6007	1186	18.52
338.15 K, x2 = 0.7004	1200.2	16.56
338.15 K, x2 = 0.8001	1215.5	14.73
338.15 K, x2 = 0.8998	1231.9	13.05
343.15 K, x2 = 0	1113.4	28.03
343.15 K, x2 = 0.1009	1123.4	25.82
343.15 K, x2 = 0.2005	1133.8	23.74
343.15 K, x2 = 0.3003	1144.8	21.65
343.15 K, x2 = 0.4001	1156.5	19.72
343.15 K, x2 = 0.4999	1169	17.89
343.15 K, x2 = 0.6007	1182.4	16.11
343.15 K, x2 = 0.7004	1196.7	14.52
343.15 K, x2 = 0.8001	1212	13
343.15 K, x2 = 0.8998	1228.3	11.6
